target: T1, human PAR4 (Homo sapiens, UniProt Q96RI0); assay: PAR4 FLIPR assay: antagonism of agonist-peptide-induced calcium mobilization in PAR4-expressing HEK293 cells; assay type: cell-based; conditions: H-Ala-Phe(4-F)-[…]NH2-induced intracellular calcium mobilization, 11-point curves
T1 construct: expressed in transfected cells; host or cells: HEK293 PAR4 Clone 1.2A (BMS Arctic ID 383940)
T1 sequence (Q96RI0 18-385): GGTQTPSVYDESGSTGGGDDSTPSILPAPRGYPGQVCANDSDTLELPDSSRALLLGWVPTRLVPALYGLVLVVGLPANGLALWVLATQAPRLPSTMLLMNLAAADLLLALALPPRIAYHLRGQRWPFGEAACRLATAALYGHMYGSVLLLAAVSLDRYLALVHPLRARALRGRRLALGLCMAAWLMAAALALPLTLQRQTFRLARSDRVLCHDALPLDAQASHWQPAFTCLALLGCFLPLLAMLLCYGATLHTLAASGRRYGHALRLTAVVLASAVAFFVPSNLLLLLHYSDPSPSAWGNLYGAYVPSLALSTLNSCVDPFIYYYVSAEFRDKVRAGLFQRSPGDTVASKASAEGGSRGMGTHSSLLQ

| Compound | IC50 |
| --- | --- |
| COc1cnc2c(-c3nc4cc(F)c(O[C@@H](C)[C@@H](C)OC(=O)Nc5cncc(F)c5)nc4s3)cc(C)cc2n1 [Example 714, (2R,3S)-3-((6-fluoro-2-(2-methoxy-7-methylquinoxalin-5-yl)thiazolo[5,4-b]pyridin-5-yl)oxy)butan-2-yl (5-fluoropyridin-3-yl)carbamate] | 1.2 nM |
| COC(=O)c1ccc(NC(=O)O[C@H](C)[C@H](C)Oc2nc3sc(-c4cc(C)cc5nc(OC)cnc45)nc3cc2F)cn1 [Example 715, methyl 5-(((((2R,3S)-3-((6-fluoro-2-(2-methoxy-7-methylquinoxalin-5-yl)thiazolo[5,4-b]pyridin-5-yl)oxy)butan-2-yl)oxy)carbonyl)amino)picolinate] | 0.9 nM |
| COc1cnc2c(-c3nc4cc(F)c(O[C@@H](C)[C@@H](C)OC(=O)Nc5cncnc5)nc4s3)cc(C)cc2n1 [Example 716, (2R,3S)-3-((6-fluoro-2-(2-methoxy-7-methylquinoxalin-5-yl)thiazolo[5,4-b]pyridin-5-yl)oxy)butan-2-yl pyrimidin-5-ylcarbamate] | 2 nM |
| COc1cnc2c(-c3nc4cc(F)c(O[C@@H](C)[C@@H](C)OC(=O)Nc5ccnc(CCO)c5)nc4s3)cc(C)cc2n1 [Example 717, (2R,3S)-3-((6-fluoro-2-(2-methoxy-7-methylquinoxalin-5-yl)thiazolo[5,4-b]pyridin-5-yl)oxy)butan-2-yl (2-(2-hydroxyethyl)pyridin-4-yl)carbamate] | 1.6 nM |
| COc1cnc2c(-c3nc4cc(F)c(O[C@@H](C)[C@@H](C)OC(=O)Nc5ccc(CC(C)(C)O)nc5)nc4s3)cc(C)cc2n1 [Example 718, (2R,3S)-3-((6-fluoro-2-(2-methoxy-7-methylquinoxalin-5-yl)thiazolo[5,4-b]pyridin-5-yl)oxy)butan-2-yl (6-(2-hydroxy-2-methylpropyl)pyridin-3-yl)carbamate] | 1.7 nM |
| COc1cnc2c(-c3nc4cc(F)c(O[C@@H](C)[C@@H](C)OC(=O)Nc5ccnc(OCCO)c5)nc4s3)cc(C)cc2n1 [Example 719, (2R,3S)-3-((6-fluoro-2-(2-methoxy-7-methylquinoxalin-5-yl)thiazolo[5,4-b]pyridin-5-yl)oxy)butan-2-yl (2-(2-hydroxyethoxy)pyridin-4-yl)carbamate] | 1.7 nM |
| COc1cnc2c(-c3nc4cc(F)c(O[C@@H](C)[C@@H](C)OC(=O)Nc5cnc(CCO)nc5)nc4s3)cc(C)cc2n1 [Example 720, (2R,3S)-3-((6-fluoro-2-(2-methoxy-7-methylquinoxalin-5-yl)thiazolo[5,4-b]pyridin-5-yl)oxy)butan-2-yl (2-(2-hydroxyethyl)pyrimidin-5-yl)carbamate] | 3.2 nM |
| COc1cnc2c(-c3nc4cc(F)c(O[C@@H](C)[C@@H](C)OC(=O)Nc5cnc(OCCO)nc5)nc4s3)cc(C)cc2n1 [Example 721, (2R,3S)-3-((6-fluoro-2-(2-methoxy-7-methylquinoxalin-5-yl)thiazolo[5,4-b]pyridin-5-yl)oxy)butan-2-yl (2-(2-hydroxyethoxy)pyrimidin-5-yl)carbamate] | 2.6 nM |
| COc1cnc2c(-c3nc4cc(F)c(O[C@@H](C)[C@@H](C)OC(=O)Nc5cnc(O[C@H](C)CO)nc5)nc4s3)cc(C)cc2n1 [Example 722, (2R,3S)-3-((6-fluoro-2-(2-methoxy-7-methylquinoxalin-5-yl)thiazolo[5,4-b]pyridin-5-yl)oxy)butan-2-yl (2-(((R)-1-hydroxypropan-2-yl)oxy)pyrimidin-5-yl)carbamate] | 1.4 nM |
| COc1cnc2c(-c3nc4cc(F)c(O[C@@H](C)[C@@H](C)OC(=O)Nc5ccnc(CO)c5)nc4s3)cc(C)cc2n1 [Example 723, (2R,3S)-3-((6-fluoro-2-(2-methoxy-7-methylquinoxalin-5-yl)thiazolo[5,4-b]pyridin-5-yl)oxy)butan-2-yl (2-(hydroxymethyl)pyridin-4-yl)carbamate] | 2.4 nM |
